Key:
Format in all cases: physicochemical
[1] = Water content by Karl Fisher analysis on storage (Example 3)
Experimental: Water content (% w/w) by Karl Fisher analysis
(§1) Each test material was stored between 2-8*C prior to placing on stability. Each material was sub-divided into 900 mg aliquots, transferred to brown opaque HDPE plastic bottles and flushed with Argon prior to sealing. Sufficient samples were provided for each time point as well as spares for each storage condition. The samples were placed in appropriate incubators previously commissioned at storage conditions 25° C./60% RH, 40° C./75% RH and 60° C.
Water Content by Karl Fisher Analysis
Water content was determined in duplicate on an aliquot of equilibrated material (approximately 100 mg) using a Tritrino 720 KFS Titrator.

[2] = Colour of solution by visible spectrophotometry on storage (Example 3); conditions: 5% w/v solution in water
Experimental: Colour of solution by UV spectrophotometry.
as §1
Colour by Visible Spectrophotometry
A 5% w/v solution of test material was prepared in water and the absorbance measured at 420 nm in a 1 cm silica cell using a Unicam UV4 Visible/UV spectrophotometer.

[3] = Stability indicating HPLC assay and related substances on storage (Example 3)
Experimental: Assay (% w/w) and related substances determination
as §1
Testing Procedures Test for Identity Content and Impurities
Testing was performed in duplicate (2×25 mg) in accordance with a stability indicating HPLC assay method. The assay results were reported as M6G as is, M6G as the anhydrous, solvent free material and the anhydrous solvent free material corrected for the salt form using the relevant conversion factor.

[4] = Visual appearance on storage (Example 3)
Experimental: as §1
The samples were stored for analysis according to the following table: […]

CN1CCC23c4c5ccc(O)c4OC2C(OC2OC(C(=O)O)C(O)C(O)C2O)C=CC3C1C5.O=P(O)(O)O (stereo not shown) [Morphine-6-glucuronide phosphate]
Moisture ([1]; 1 month, 25° C./60% RH): 3.91 % w/w | Moisture ([1]; 1 month, 40° C./75% RH): 9.28 % w/w | Moisture ([1]; 1 month, 60° C.): 5.12 % w/w | Moisture ([1]; 3 months, 25° C./60% RH): 5.06 % w/w | Moisture ([1]; 3 months, 40° C./75% RH): 11.88 % w/w | increase in moisture content compared to initial ([1]; 40° C./75% RH): around 8% | Moisture ([1]; Initial): 3.12 % w/w | Colour ([2]; 1 month, 25° C./60% RH): 0.053 Abs@420 nm | Colour ([2]; 1 month, 40° C./75% RH): 0.308 Abs@420 nm | Colour ([2]; 1 month, 60° C.): 0.787 Abs@420 nm | Colour ([2]; 3 months, 25° C./60% RH): 0.098 Abs@420 nm | Colour ([2]; 3 months, 40° C./75% RH): 0.878 Abs@420 nm | Colour ([2]; Initial): 0.034 Abs@420 nm | Known Related Substances HN33177 ([3]; 1 month, 25° C./60% RH): 0.78% | Known Related Substances HN67003 ([3]; 1 month, 25° C./60% RH): 0.04% | Known Related Substances HN75083 ([3]; 1 month, 25° C./60% RH): 0.03% | M6G Assay, Anhydrous basis ([3]; 1 month, 25° C./60% RH): 91.37 % w/w | M6G Assay, As is basis ([3]; 1 month, 25° C./60% RH): 84.57 % w/w | M6G Assay, Corrected for the salt form ([3]; 1 month, 25° C./60% RH): 110.76 % w/w | Total Known ([3]; 1 month, 25° C./60% RH): 0.85% | Total Related Substances ([3]; 1 month, 25° C./60% RH): 1.41% | Total Unknown ([3]; 1 month, 25° C./60% RH): 0.56% | Known Related Substances HN33177 ([3]; 1 month, 40° C./75% RH): 0.70% | Known Related Substances HN67003 ([3]; 1 month, 40° C./75% RH): 0.53% | Known Related Substances HN75083 ([3]; 1 month, 40° C./75% RH): 0.14% | M6G Assay, Anhydrous basis ([3]; 1 month, 40° C./75% RH): 92.00 % w/w | M6G Assay, As is basis ([3]; 1 month, 40° C./75% RH): 80.20 % w/w | M6G Assay, Corrected for the salt form ([3]; 1 month, 40° C./75% RH): 111.52 % w/w | Total Known ([3]; 1 month, 40° C./75% RH): 1.37% | Total Related Substances ([3]; 1 month, 40° C./75% RH): 3.44% | Total Unknown ([3]; 1 month, 40° C./75% RH): 2.07% | Known Related Substances HN33177 ([3]; 1 month, 60° C.): 0.70% | Known Related Substances HN67003 ([3]; 1 month, 60° C.): 0.90% | Known Related Substances HN75076 ([3]; 1 month, 60° C.): 0.03% | Known Related Substances HN75083 ([3]; 1 month, 60° C.): 0.27% | Known Related Substances Morphine ([3]; 1 month, 60° C.): 0.18% | M6G Assay, Anhydrous basis ([3]; 1 month, 60° C.): 88.33 % w/w | M6G Assay, As is basis ([3]; 1 month, 60° C.): 80.69 % w/w | M6G Assay, Corrected for the salt form ([3]; 1 month, 60° C.): 107.08 % w/w | Total Known ([3]; 1 month, 60° C.): 2.08% | Total Related Substances ([3]; 1 month, 60° C.): 5.43% | Total Unknown ([3]; 1 month, 60° C.): 3.35% | stability based on % w/w assay ([3]; 3 month assay data): most stable | Known Related Substances HN33177 ([3]; 3 months, 25° C./60% RH): 0.78% | Known Related Substances HN67003 ([3]; 3 months, 25° C./60% RH): 0.16% | Known Related Substances HN75076 ([3]; 3 months, 25° C./60% RH): 0.03% | Known Related Substances HN75083 ([3]; 3 months, 25° C./60% RH): 0.19% | Known Related Substances Morphine ([3]; 3 months, 25° C./60% RH): 0.07% | M6G Assay, Anhydrous basis ([3]; 3 months, 25° C./60% RH): 91.16 % w/w | M6G Assay, As is basis ([3]; 3 months, 25° C./60% RH): 84.25 % w/w | M6G Assay, Corrected for the salt form ([3]; 3 months, 25° C./60% RH): 110.50 % w/w | Total Known ([3]; 3 months, 25° C./60% RH): 1.23% | Total Related Substances ([3]; 3 months, 25° C./60% RH): 2.31% | Total Unknown ([3]; 3 months, 25° C./60% RH): 1.08% | Known Related Substances HN33177 ([3]; 3 months, 40° C./75% RH): 0.59% | Known Related Substances HN67003 ([3]; 3 months, 40° C./75% RH): 0.75% | Known Related Substances HN75076 ([3]; 3 months, 40° C./75% RH): 0.12% | Known Related Substances HN75083 ([3]; 3 months, 40° C./75% RH): 0.06% | Known Related Substances Morphine ([3]; 3 months, 40° C./75% RH): 0.32% | M6G Assay, Anhydrous basis ([3]; 3 months, 40° C./75% RH): 92.40 % w/w | M6G Assay, As is basis ([3]; 3 months, 40° C./75% RH): 79.02 % w/w | M6G Assay, Corrected for the salt form ([3]; 3 months, 40° C./75% RH): 112.01 % w/w | Total Known ([3]; 3 months, 40° C./75% RH): 1.84% | Total Related Substances ([3]; 3 months, 40° C./75% RH): 5.99% | Total Unknown ([3]; 3 months, 40° C./75% RH): 4.15% | Known Related Substances HN33177 ([3]; Initial): 0.75% | Known Related Substances HN67003 ([3]; Initial): 0.04% | Known Related Substances HN75083 ([3]; Initial): 0.07% | M6G Assay, Anhydrous basis ([3]; Initial): 89.21 % w/w | M6G Assay, As is basis ([3]; Initial): 83.90 % w/w | M6G Assay, Corrected for the salt form ([3]; Initial): 108.12 % w/w | Total Known ([3]; Initial): 0.86% | Total Related Substances ([3]; Initial): 0.86% | Total Unknown ([3]; Initial): 0.00% | assay values throughout the study ([3]; all storage conditions, material a phosphate/base mixture): around 110% | Appearance ([4]; 1 month, 25° C./60% RH): White crystalline powder | Appearance ([4]; 1 month, 40° C./75% RH): Slightly yellow crystalline powder | Appearance ([4]; 1 month, 60° C.): Pale yellow crystalline powder | Appearance ([4]; 3 months, 25° C./60% RH): White crystalline powder | Appearance ([4]; 3 months, 25° C./60% RH, listed as phosphate): white crystalline solids | Appearance ([4]; 3 months, 40° C./75% RH): Slightly yellow crystalline powder | Appearance ([4]; Initial): White crystalline powder

From patent publication US20060166900A1, “Salt of morphine-6-glucuronide” (CeNeS Limited, priority 2002, published 2006)
